Assay [1] concerns Ova-specific target cells. Put plainly: in vivo specific cytotoxic T cell (CD8+) response, specific lysis of Ova-specific target cells. The arrangement: species or system mouse. To be noted: for average Ova-specific cytotoxic response (percent specific lysis): Example 2, FIG. 2; for average Ova-specific cytotoxic response (percent specific lysis) / specific lysis of Ova-specific target cells in blood: IV; for average Ova-specific cytotoxic response (percent specific lysis) / average OVA-specific cytotoxic response (percent specific lysis): 400 μg Ova with or without 1 μg adjuvant; for average Ova-specific cytotoxic response (percent specific lysis) / average OVA-specific cytotoxic response (percent specific lysis) / percentage of specific lysis of the target cells by CD8+ T cells: blood day 11; for average OVA-specific cytotoxic response (percent specific lysis): Example 2, FIG. 3; for average OVA-specific cytotoxic response (percent specific lysis) / percentage of specific lysis of the target cells by CD8+ T cells / enhancement of the CD8+ T cell response at low doses (specific lysis): IM; for percentage of specific lysis of the target cells by CD8+ T cells: Example 5 Experiment B, FIG. 8, 50 μg OVA with 10 ng adjuvant; for specific lysis of Ova-specific target cells in blood: Example 1, FIG. 1, 1 μg adjuvant with 50 μg Ova, day 0, target cells day 10, read day 11; for enhancement of the CD8+ T cell response at low doses (specific lysis): Example 5, FIGS. 7 and 8, 50 μg OVA with 100 ng or 10 ng adjuvant.

The test system of assay [2] is CD8+ T cells responsive to OVA. Put plainly: SIINFEKL pentamer assay, percentage of OVA-specific CD8+ T cells. To be noted: IM, days 0 and 14, blood day 21. It is filed as in vivo, mouse. On the procedure: To verify the results obtained using the in vivo cytotoxicity assay described in the Examples above, similar experiments were performed and CD8+ T cell activation was determined by measuring the percentage of OVA-specific CD8+ T cells using a pentamer assay. Briefly, mice were injected intramuscularly with the indicated amounts of OVA and test adjuvant compound at either 1 μg or 100 ng per mouse, respectively on day 0 as follows:
Experiment A: • Group 1: 100 μl of PBS; • Group 2: 50 μg of Ova into 100 μl PBS; • Group 3: 50 μg of Ova with 1 μg αGalCer; • Group 4: 50 μg of Ova with 1 μg PBS-11 • Group 5: 50 μg of Ova with 1 μg PBS-14 • Group 6: 50 μg of Ova with […] PBS-57 • Group 7: 50 μg of Ova with 1 μg PBS-96
Experiment B: • Group 1: 100 μl of PBS; • Group 2: 50 μg of Ova into 100 μl PBS; • Group 3: 50 μg of Ova with 100 ng αGalCer; • Group 4: 50 μg of Ova with 100 ng PBS-11 • Group 5: 50 μg of Ova with 100 ng PBS-14 • Group 6: 50 μg of Ova with 100 ng PBS-57 • Group 7: […] of Ova with 100 ng PBS-96 A second injection was administered to the mice on day 14 and blood was collected from the mice on day 21. The lymphocytes were collected and analyzed by FACS analysis using H-2K^b SIINFEKL pentamer and CD8 antibody to detect CD8+ T cells responsive to OVA.

The subject of a further assay is OVA-specific IgG2a. Put plainly: OVA-specific IgG2a ELISA after intramuscular immunization. It is filed as in vivo, mouse. The note with it: FIG. 12; IM, 50 μg OVA with 100 ng adjuvant, 14 days post-injection. How it is done: Mice (6 per group) were injected intramuscularly with 50 μg of OVA either alone or in combination with 100 ng of the indicated adjuvants (Freund's adjuvant was used as a positive control) as follows: • Group 1: […] of Ova with CFA/IFA (Positive control) • Group 2: 50 μg of Ova • Group 3: 50 μg of Ova and 100 ng of αGalCer • Group 4: 50 μg of Ova and 100 ng of PBS-11 • Group 5: 50 μg of Ova and 100 ng of PBS-14 • Group 6: 50 μg of Ova and 100 ng of PBS-57 • Group 7: 50 μg of Ova and 100 ng of PBS-96 At 14 days post-injection, blood samples were collected and ELISAs for IgG1 and IgG2a were performed using mouse monoclonal antibodies specific for OVA isotype IgG1 or IgG2a. The results are shown as the titer of the antibody in peripheral blood in ng/ml. The results for IgG1 are depicted in FIG. 11 and those for IgG2a are depicted in FIG. 12.

The mark [3] stands for this setting: Example 6 Experiment A, FIG. 9, 50 μg Ova with 1 μg adjuvant.
[4] abbreviates: Example 6 Experiment B, FIG. 10, 50 μg Ova with 100 ng adjuvant.

As to `CCCCCCCC/C=C\CCCCCCCCCCCCCC(=O)N[C@@H](CO[C@H]1O[C@H](CNC(C)=O)[C@H](O)[C@H](O)[C@H]1O)[C@H](O)[C@H](O)CCCCCCCCCCCCCC` [PBS-57, reference compound], in assay [1], the “average Ova-specific cytotoxic response (percent specific lysis)” value stood at 88.1±6.2%, the “average OVA-specific cytotoxic response (percent specific lysis)” value is given as 56.11±13.34% and the “percentage of specific lysis of the target cells by CD8+ T cells” value (“percentage … by CD8+ T cells” below) is recorded as “indistinguishable from the controls”. The “percentage of OVA specific CD8+ T cells (SIINFEKL pentamer)” value (“percentage of OVA specific CD8+ T cells” below) in assay [2] (setting [3]) is on record as “enhanced the percentage of OVA specific CD8+ T cells”.
`CCCCCCCCCCCCCCCCCCCCCCCCCC(=O)N[C@@H](CO[C@H]1O[C@H](CO)[C@H](O)[C@H](O)[C@H]1O)[C@H](O)[C@H](O)CCCCCCCCCCCCCC` [αGalCer, α-galactosyceramide, reference compound]: the “percentage … by CD8+ T cells” value in assay [1] was “indistinguishable from the controls”. In addition, the “percentage of OVA specific CD8+ T cells” value in assay [2] (setting [3]) is listed as “not as effective”.
As to `CCCCCCCCCCCCCCCCCCCCCCCCCC(=O)N[C@@H](CO[C@H]1O[C@H](CNC(=O)CCCC[C@@H]2SC[C@@H]3NC(=O)N[C@@H]32)[C@H](O)[C@H](O)[C@H]1O)[C@H](O)[C@H](O)CCCCCCCCCCCCCC` [PBS-11, reference compound], in assay [1], the “specific lysis of Ova-specific target cells in blood” value (shortened to “specific lysis … in blood”) was “did not result in specific lysis of cells” and the “percentage … by CD8+ T cells” value is “indistinguishable from the controls”. For the same molecule, the “percentage of OVA specific CD8+ T cells” value in assay [2] (setting [3]) was “not as effective”.
For the molecule `CCCCCCCCCCCCCCCCCCCCCCCC(=O)N[C@@H](CO[C@H]1O[C@H](CNC(C)=O)[C@H](O)[C@H](O)[C@H]1O)[C@H](O)[C@H](O)CCCCCCCCCCCCCC` [PBS-96], the “OVA specific IgG2a titer in peripheral blood” value with OVA-specific IgG2a was “enhanced the OVA specific IgG2a titer about as well as Freund's adjuvant and much better than PBS-57”. In assay [1], the “specific lysis … in blood” value is reported as “resulted in cytotoxic lysis of Ova-specific target cells”, the “average Ova-specific cytotoxic response (percent specific lysis)” value is listed as 89.2±10.3%, the “average OVA-specific cytotoxic response (percent specific lysis)” value came out at 50.29±42.6% and the “enhancement of the CD8+ T cell response at low doses (specific lysis)” value is reported as “unexpectedly better than other adjuvants”. For the same molecule, the “percentage of OVA specific CD8+ T cells” value in assay [2] (setting [3]) is “enhanced the percentage of OVA specific CD8+ T cells”. Besides, the “percentage of OVA specific CD8+ T cells” value in assay [2] (setting [4]) is recorded as “surprisingly much better at enhancing the CD8+ T cell response”.
Consider `CCCCCCCCCCCCCCCCCCCCCCCCCC(=O)N[C@@H](CO[C@H]1O[C@H](CNC(C)=O)[C@H](O)[C@H](O)[C@H]1O)[C@H](O)[C@H](O)CCCCCCCCCCCCCC` [PBS-14], for which, in the assay on OVA-specific IgG2a, the “OVA specific IgG2a titer in peripheral blood” value is “enhanced the OVA specific IgG2a titer about as well as Freund's adjuvant and much better than PBS-57”. In assay [1], the “specific lysis … in blood” value was “resulted in cytotoxic lysis of Ova-specific target cells”, the “average Ova-specific cytotoxic response (percent specific lysis)” value was 83.3±6.1%, the “average OVA-specific cytotoxic response (percent specific lysis)” value is given as 52.07±29.56% and the “enhancement of the CD8+ T cell response at low doses (specific lysis)” value is on record as “unexpectedly better than other adjuvants”. The “percentage of OVA specific CD8+ T cells” value in assay [2] (setting [3]) is on record as “enhanced the percentage of OVA specific CD8+ T cells”. The “percentage of OVA specific CD8+ T cells” value in assay [2] (setting [4]) was “surprisingly much better at enhancing the CD8+ T cell response”.

B1: ovalbumin (protein, UniProt P01012 2-386, looked up)
Ovalbumin: GSIGAASMEFCFDVFKELKVHHANENIFYCPIAIMSALAMVYLGAKDSTRTQINKVVRFDKLPGFGDSIEAQCGTSVNVHSSLRDILNQITKPNDVYSFSLASRLYAEERYPILPEYLQCVKELYRGGLEPINFQTAADQARELINSWVESQTNGIIRNVLQPSSVDSQTAMVLVNAIVFKGLWEKAFKDEDTQAMPFRVTEQESKPVQMMYQIGLFRVASMASEKMKILELPFASGTMSMLVLLPDEVSGLEQLESIINFEKLTEWTSSNVMEERKIKVYLPRMKMEEKYNLTSVLMAMGITDVFSSSANLSGISSAESLKISQAVHAAHAEINEAGREVVGSAEAGVDAASVSEEFRADHPFLFCIKHIATNAVLFFGRCVSP
notes: nominal antigen, Ovalbumin grade VII, Sigma
Take B1: in assay [1], the “average Ova-specific cytotoxic response (percent specific lysis)” value is 11.8±14.4% and the “average OVA-specific cytotoxic response (percent specific lysis)” value is given as 1.60±14.33%.

The values above are taken from patent US8211861B2, “Compositions for and methods of enhancing the immune response to antigens” (Wittycell, priority 2007, dated 2012).
